Source: PubChem BioAssay (NCI)
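A five-concentration, 48-hour dose response in 96-well plates underlies each endpoint, interpolated linearly between surrounding concentrations. TGI: concentration producing complete growth inhibition.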

Assays:
Test in all cases: NCI tumour cell line growth inhibition, 48 h
SNB-75 CNS = test system: SNB-75 CNS
UACC-257 melanoma = test system: UACC-257 melanoma
LXFL 529 NSCLC = test system: LXFL 529 NSCLC
OVCAR-3 ovarian = test system: OVCAR-3 ovarian
HOP-62 NSCLC = test system: HOP-62 NSCLC
CAKI-1 renal = test system: CAKI-1 renal
DMS 114 small cell lung = test system: DMS 114 small cell lung
MALME-3M melanoma = test system: MALME-3M melanoma
IGROV1 ovarian = test system: IGROV1 ovarian
A549 NSCLC = test system: A549 NSCLC
SW-620 colon = test system: SW-620 colon
KM12 colon = test system: KM12 colon
COLO 205 colon = test system: COLO 205 colon
KM20L2 colon = test system: KM20L2 colon
M19-MEL melanoma = test system: M19-MEL melanoma
SK-MEL-2 melanoma = test system: SK-MEL-2 melanoma
SF-268 CNS = test system: SF-268 CNS
HCT-116 colon = test system: HCT-116 colon
NCI-H23 lung = test system: NCI-H23 lung
NCI-H460 lung = test system: NCI-H460 lung
TK-10 renal = test system: TK-10 renal
SF-539 CNS = test system: SF-539 CNS
SK-OV-3 ovarian = test system: SK-OV-3 ovarian
HCC-2998 colon = test system: HCC-2998 colon
EKVX NSCLC = test system: EKVX NSCLC
U251 CNS = test system: U251 CNS
UO-31 renal = test system: UO-31 renal
DMS 273 small cell lung = test system: DMS 273 small cell lung
NCI-H226 lung = test system: NCI-H226 lung
XF 498 CNS = test system: XF 498 CNS
OVCAR-5 ovarian = test system: OVCAR-5 ovarian
M14 melanoma = test system: M14 melanoma
ACHN renal = test system: ACHN renal
OVCAR-4 ovarian = test system: OVCAR-4 ovarian
OVCAR-8 ovarian = test system: OVCAR-8 ovarian
A498 renal = test system: A498 renal
HOP-18 NSCLC = test system: HOP-18 NSCLC
NCI-H522 lung = test system: NCI-H522 lung
HL-60(TB) leukemia = test system: HL-60(TB) leukemia
SK-MEL-5 melanoma = test system: SK-MEL-5 melanoma
RPMI-8226 leukemia = test system: RPMI-8226 leukemia
SF-295 CNS = test system: SF-295 CNS
LOX IMVI melanoma = test system: LOX IMVI melanoma
SNB-78 CNS = test system: SNB-78 CNS
HT29 colon = test system: HT29 colon
HOP-92 NSCLC = test system: HOP-92 NSCLC
SR leukemia = test system: SR leukemia
HCT-15 colon = test system: HCT-15 colon
SK-MEL-28 melanoma = test system: SK-MEL-28 melanoma
UACC-62 melanoma = test system: UACC-62 melanoma
RXF 393 renal = test system: RXF 393 renal
786-0 renal = test system: 786-0 renal
CCRF-CEM leukemia = test system: CCRF-CEM leukemia
MOLT-4 leukemia = test system: MOLT-4 leukemia
SNB-19 CNS = test system: SNB-19 CNS
K-562 leukemia = test system: K-562 leukemia
SN12C renal = test system: SN12C renal
RXF-631 renal = test system: RXF-631 renal

Measured: TGI

CCOc1ccc(NC(=O)C(=O)CC(=O)c2c(C)n([O-])c3ccccc3[n+]2=O)cc1
> 100 µM: SNB-75 CNS | UACC-257 melanoma | LXFL 529 NSCLC | OVCAR-3 ovarian | HOP-62 NSCLC | CAKI-1 renal | DMS 114 small cell lung | MALME-3M melanoma | IGROV1 ovarian | A549 NSCLC | SW-620 colon | KM12 colon | COLO 205 colon | KM20L2 colon | M19-MEL melanoma | SK-MEL-2 melanoma | SF-268 CNS | HCT-116 colon | NCI-H23 lung | NCI-H460 lung | TK-10 renal | SF-539 CNS | SK-OV-3 ovarian | HCC-2998 colon | EKVX NSCLC | U251 CNS | UO-31 renal | DMS 273 small cell lung | NCI-H226 lung | XF 498 CNS | OVCAR-5 ovarian | M14 melanoma | ACHN renal | OVCAR-4 ovarian | OVCAR-8 ovarian | A498 renal | HOP-18 NSCLC | NCI-H522 lung | HL-60(TB) leukemia | SK-MEL-5 melanoma | RPMI-8226 leukemia | SF-295 CNS | LOX IMVI melanoma | SNB-78 CNS | HT29 colon | HOP-92 NSCLC | SR leukemia | HCT-15 colon | SK-MEL-28 melanoma | UACC-62 melanoma | RXF 393 renal | 786-0 renal | CCRF-CEM leukemia | MOLT-4 leukemia | SNB-19 CNS | K-562 leukemia | SN12C renal | RXF-631 renal
